Data published in ChEMBL document CHEMBL1130170, “Orally active trifluoromethyl ketone inhibitors of human leukocyte elastase” (J Med Chem, 1997).
Where a SMILES comes first, the peptide text is derived from it. [ ]: non-standard residue; d: D form. The star is where a group is joined. ξ: configuration not given here. Cbz = O=C(OCc1ccccc1)*; ξV = CC(C)C(N)C(=O)O; CF3 = FC(F)(F)*; Moc = COC(=O)*

Columns and labels:
Cricetinae gen. sp. [1] = experiment: Percent inhibition of elastase-induced lung damage by 10 mg/kg dosed orally, 30 minutes prior to the instillation of 50 ug of elastase; assay type: functional, Cricetulus griseus; conditions: Cricetinae gen. sp., po
Neutrophil elastase = target: T1, Neutrophil elastase (Homo sapiens, UniProt P08246); experiment: Binding affinity for human leukocyte elastase
T1 sequence (P08246 whole entry): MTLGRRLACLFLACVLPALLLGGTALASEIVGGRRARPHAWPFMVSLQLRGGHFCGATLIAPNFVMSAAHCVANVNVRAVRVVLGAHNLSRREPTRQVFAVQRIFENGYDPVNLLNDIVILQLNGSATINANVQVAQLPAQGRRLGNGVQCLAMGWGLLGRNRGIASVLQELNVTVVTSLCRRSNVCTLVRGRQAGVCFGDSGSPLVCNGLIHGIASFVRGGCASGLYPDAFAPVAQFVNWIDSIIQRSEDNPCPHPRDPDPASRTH

Cricetinae gen. sp. [2] = experiment: Effective dose in the Acute Hemarrhagic Assay model after oral administration; assay type: functional, Cricetulus griseus

Structure (SMILES)	inhibition in vivo at 10 mg/kg (Cricetinae gen. sp. [1]) [%]	Ki (Neutrophil elastase) [nM]	ED50 (Cricetinae gen. sp. [2]) [mg/kg]
CC(C)[C@H](NC(=O)OC1CCCC1)C(=O)N1CCC[C@H]1C(=O)N[C@H](C(=O)C(F)(F)F)C(C)C	43	1.9	
CC(C)[C@H](NC(=O)Oc1ccccc1)C(=O)N1CCC[C@H]1C(=O)N[C@H](C(=O)C(F)(F)C(=O)NCc1ccccn1)C(C)C	69	1.7	
CC(C)[C@H](NC(=O)Oc1ccccc1)C(=O)N1CCC[C@H]1C(=O)N[C@H](C(=O)C(F)(F)CNC(=O)c1cccnc1)C(C)C	46	0.35	
COc1ccc(C(=O)N[C@H](C(=O)N2CCC[C@H]2C(=O)N[C@H](C(=O)C(F)(F)CNCc2ccccc2)C(C)C)C(C)C)cc1	17		
CC(C)[C@H](NC(=O)Oc1ccccc1)C(=O)N1CCC[C@H]1C(=O)N[C@H](C(=O)C(F)(F)CN)C(C)C	45		
COC(=O)c1ccc2oc(C(=O)[C@@H](NC(=O)[C@@H]3CCCN3C(=O)[C@@H](NC(=O)OCc3ccccc3)C(C)C)C(C)C)nc2c1	34	0.58	
COC(=O)c1ccc2oc(C(=O)[C@@H](NC(=O)[C@@H]3CCCN3C(=O)[C@@H](NC(=O)c3ccc(OC)cc3)C(C)C)C(C)C)nc2c1	0	0.65	
COc1ccc(C(=O)N[C@H](C(=O)N2CCC[C@H]2C(=O)N[C@H](C(=O)C(F)(F)CN)C(C)C)C(C)C)cc1	10		
COc1ccc(C(=O)N[C@H](C(=O)N2CCC[C@H]2C(=O)N[C@H](C(=O)C(F)(F)F)C(C)C)C(C)C)cc1 (stereo in doubt; 1a)	70		
CC(=O)NCC(F)(F)C(=O)[C@@H](NC(=O)[C@@H]1CCCN1C(=O)[C@@H](NC(=O)Oc1ccccc1)C(C)C)C(C)C	42	2.3	
COC(=O)c1ccc2oc(C(=O)[C@@H](NC(=O)[C@@H]3CCCN3C(=O)[C@@H](NC(=O)Oc3ccccc3)C(C)C)C(C)C)nc2c1	12	0.64	
CC(C)[C@H](NC(=O)Oc1ccccc1)C(=O)N1CCC[C@H]1C(=O)N[C@H](C(=O)C(F)(F)F)C(C)C	93	1.5	
COc1ccc(C(=O)N[C@H](C(=O)N2CCC[C@H]2C(=O)N[C@@H](C(=O)C(F)(F)C(=O)NCc2ccccn2)C(C)C)C(C)C)cc1	31	58	
CCCNC(=O)C(F)(F)C(=O)[C@@H](NC(=O)[C@@H]1CCCN1C(=O)[C@@H](NC(=O)c1ccc(OC)cc1)C(C)C)C(C)C	17	8.9	
CC(C)[C@H](NC(=O)OCc1ccccc1)C(=O)N1CCC[C@H]1C(=O)N[C@H](C(=O)C(F)(F)C(N)=O)C(C)C	17		
COc1ccc(C(=O)N[C@H](C(=O)N2CCC[C@H]2C(=O)N[C@H](C(=O)C(F)(F)C(=O)NCc2ccccn2)C(C)C)C(C)C)cc1	43	3.1	
CCCCOC(=O)NCC(F)(F)C(=O)[C@@H](NC(=O)[C@@H]1CCCN1C(=O)[C@@H](NC(=O)Oc1ccccc1)C(C)C)C(C)C	0	0.35	
CC(C)[C@H](NC(=O)OCc1ccccc1)C(=O)N1CCC[C@H]1C(=O)N[C@H](C(=O)C(F)(F)CNCc1ccccc1)C(C)C	0		

Structure (SMILES)	inhibition in vivo at 10 mg/kg (Cricetinae gen. sp. [1]) [%]	Ki (Neutrophil elastase) [nM]	ED50 (Cricetinae gen. sp. [2]) [mg/kg]
CC(C)[C@H](NC(=O)OCc1ccccc1)C(=O)N1CCC[C@H]1C(=O)N[C@H](C(=O)C(F)(F)F)C(C)C (Cbz-Val-Pro-Val-CF3)	42		
CCOC(=O)N[C@H](C(=O)N1CCC[C@H]1C(=O)N[C@H](C(=O)C(F)(F)F)C(C)C)C(C)C	74	43	
CC(C)OC(=O)N[C@H](C(=O)N1CCC[C@H]1C(=O)N[C@H](C(=O)C(F)(F)F)C(C)C)C(C)C	80	5.8	3
CC(C)COC(=O)N[C@H](C(=O)N1CCC[C@H]1C(=O)N[C@H](C(=O)C(F)(F)F)C(C)C)C(C)C	3	20	
COC(=O)N[C@H](C(=O)N1CCC[C@H]1C(=O)NC(C(=O)C(F)(F)F)C(C)C)C(C)C (stereo partly drawn) (Moc-Val-Pro-[ξV]-CF3)	92		
CC(C)[C@H](NC(=O)[C@@H]1CCCN1C(=O)[C@@H](NC(=O)OCc1ccccc1)C(C)C)C(=O)c1nc2ccccc2o1	0	4.7	
CNC(=O)C(F)(F)C(=O)[C@@H](NC(=O)[C@@H]1CCCN1C(=O)[C@@H](NC(=O)OCc1ccccc1)C(C)C)C(C)C	7		
CC(C)[C@H](NC(=O)Oc1ccccc1)C(=O)N1CCC[C@H]1C(=O)N[C@H](C(=O)C(F)(F)CNCc1ccccc1)C(C)C	18		
COc1ccc(C(=O)N[C@H](C(=O)N2CCC[C@H]2C(=O)N[C@H](C(=O)c2nc3cc(NC(C)=O)ccc3o2)C(C)C)C(C)C)cc1	11	8	
CNC(=O)C(F)(F)C(=O)[C@@H](NC(=O)[C@@H]1CCCN1C(=O)[C@@H](NC(=O)c1ccc(OC)cc1)C(C)C)C(C)C	25	3.8	
CCCCOC(=O)NCC(F)(F)C(=O)[C@@H](NC(=O)[C@@H]1CCCN1C(=O)[C@@H](NC(=O)OCc1ccccc1)C(C)C)C(C)C	0	1.1	
CC(C)[C@H](NC(=O)COc1ccccc1)C(=O)N1CCC[C@H]1C(=O)N[C@H](C(=O)C(F)(F)F)C(C)C	8	17	
CC(C)OC(=O)N[C@H](C(=O)N1CCC[C@H]1C(=O)NC(C(=O)C(F)(F)F)C(C)C)C(C)C (stereo partly specified)	69	33	
CNC(=O)C(F)(F)C(=O)[C@@H](NC(=O)[C@@H]1CCCN1C(=O)[C@@H](NC(=O)Oc1ccccc1)C(C)C)C(C)C	80		
COc1ccc(C(=O)N[C@H](C(=O)N2CCC[C@H]2C(=O)N[C@H](C(=O)C(F)(F)CNC(=O)c2ccccc2)C(C)C)C(C)C)cc1	18	6.4	
CC(C)[C@H](NC(=O)c1ccc(C(=O)NS(=O)(=O)c2ccccc2)cc1)C(=O)N1CCC[C@H]1C(=O)N[C@H](C(=O)C(F)(F)C(=O)NCCc1ccccc1)C(C)C		0.06	
COC(=O)c1ccc2nc(C(=O)[C@@H](NC(=O)[C@@H]3CCCN3C(=O)[C@@H](NC(=O)Oc3ccccc3)C(C)C)C(C)C)oc2c1	27	0.64	
CCCCOC(=O)NCC(F)(F)C(=O)[C@@H](NC(=O)[C@@H]1CCCN1C(=O)[C@@H](NC(=O)c1ccc(OC)cc1)C(C)C)C(C)C	24	3.4	
